Target: T1, human FFAR1 (GPR40) (Homo sapiens, UniProt O14842)
T1 construct: Flag; expressed in transfected cells; host or cells: HEK293T
Experiment: NFAT-RE-based reporter gene activity assay (Dual-Glo luciferase) for GPR40 agonistic activity in co-transfected HEK293T cells
Type: cell-based
Conditions: 4-hour treatment
Procedure, shortened: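 HEK293T cells co-transfected with human FFAR1, NFAT-RE firefly luciferase and TK-Renilla plasmids; 24 h later treated 4 h with 10 half-log compound dilutions from 1 µM. Firefly/Renilla ratio normalised to DMSO; EC50 from four-parameter fit.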

T1 sequence (O14842 whole entry): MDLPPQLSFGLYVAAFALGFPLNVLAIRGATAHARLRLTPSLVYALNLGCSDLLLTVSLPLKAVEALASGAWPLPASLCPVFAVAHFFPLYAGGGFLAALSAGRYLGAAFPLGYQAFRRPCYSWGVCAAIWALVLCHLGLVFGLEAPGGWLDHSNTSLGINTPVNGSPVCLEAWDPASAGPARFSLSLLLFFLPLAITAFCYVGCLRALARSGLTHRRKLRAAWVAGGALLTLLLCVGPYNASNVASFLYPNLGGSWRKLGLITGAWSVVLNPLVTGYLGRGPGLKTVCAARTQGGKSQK

Row | Efficacy (%) (numeric values of positive controls) | SMILES | EC50 | Efficacy (%) (class symbols)
1 |  | COc1cccc(N2CCC(c3oc4cc([C@@H](CC(=O)O)C5CC5)ccc4c3C/C=C/C3CC3)CC2)c1 [Compound 375] | 100 to 500 nM | †† (150 ≥ Efficacy (%) > 100)
2 |  | COc1cccc(N2CCC(c3oc4cc([C@@H](CC(=O)O)C5CC5)ccc4c3-c3ccnc(C)c3)CC2)c1 [Compound 145] | 10 to 100 nM | †† (150 ≥ Efficacy (%) > 100)
3 |  | COc1cccc(N2CCC(c3oc4cc([C@H](C5CC5)C(F)C(=O)O)ccc4c3-c3cnn(C(C)(C)C)c3)CC2)c1 (some centres unmarked) [Compound 54] | 10 to 100 nM | †† (150 ≥ Efficacy (%) > 100)
4 |  | COc1ccc(F)c(N2CCC(c3oc4cc(C(CC(=O)O)C5CC5)ccc4c3C(=O)NCCC(C)(C)C)CC2)c1 (centres unmarked) [Compound 307] | 100 to 500 nM | †† (150 ≥ Efficacy (%) > 100)
5 |  | COc1cccc(N2CCC(c3oc4cc(C(CC(=O)O)C5CC5)ccc4c3C(=O)Nc3cccc(Cl)c3)CC2)c1 (centres unmarked) [Compound 248] | 100 to 500 nM | †† (150 ≥ Efficacy (%) > 100)
6 |  | COc1cccc(N2CCC(c3oc4cc([C@@H](CC(=O)O)C5CC5)ccc4c3C(=O)Nc3ccccc3OC(F)(F)F)CC2)c1 [Compound 240] | 100 to 500 nM | †† (150 ≥ Efficacy (%) > 100)
7 |  | CSc1cccc(N2CCC(c3oc4cc(C(CC(=O)O)C5CC5)ccc4c3-c3ccc(C(C)(C)C)cc3)CC2)c1 (centres unmarked) [Compound 26] | 100 to 500 nM | †† (150 ≥ Efficacy (%) > 100)
8 |  | COc1cccc(N2CCC(c3oc4cc(C(CC(=O)O)C5CC5)ccc4c3C(=O)Nc3cc(-c4ccccc4)nn3C)CC2)c1 (centres unmarked) [Compound 302] | 100 to 500 nM | † (100 ≥ Efficacy (%) > 50)
9 |  | CC(C)(C)c1ccc(-c2c(C3CCN(c4ccc5c(c4)OCC5)CC3)oc3cc(C(CC(=O)O)C4CC4)ccc23)cc1 (centres unmarked) [Compound 208] | 100 to 500 nM | ††† (Efficacy (%) > 150)
10 |  | COc1ccc(F)c(N2CCC(c3oc4cc(C(C5CC5)C(C)(C)C(=O)O)ccc4c3-c3ccc(C(C)(C)C)cc3)CC2)c1 (centres unmarked) [Compound 222] | 100 to 500 nM | ††† (Efficacy (%) > 150)
11 |  | COc1cccc(N2CCC(c3oc4cc([C@@H](CC(=O)O)C5CC5)ccc4c3COc3ccccc3)CC2)c1 [Compound 404] | 100 to 500 nM | †† (150 ≥ Efficacy (%) > 100)
12 |  | COc1cccc(N2CCC(c3oc4cc([C@@H](CC(=O)O)C5CC5)ccc4c3C(OC)c3ccccc3)CC2)c1 (some centres unmarked) [Compound 425] | 100 to 500 nM | †† (150 ≥ Efficacy (%) > 100)
13 |  | CCc1ccc(Cl)c(NC(=O)c2c(C3CCN(c4cc(OC)ccc4F)CC3)oc3cc([C@@H](CC(=O)O)C4CC4)ccc23)c1 [Compound 339] | ≤ 10 nM | †† (150 ≥ Efficacy (%) > 100)
14 |  | COc1cccc(N2CCC(c3oc4cc([C@@H](CC(=O)O)C5CC5)ccc4c3C(C)OCc3ccco3)CC2)c1 (some centres unmarked) [Compound 420] | 100 to 500 nM | †† (150 ≥ Efficacy (%) > 100)
15 |  | CCCOC(C)c1c(C2CCN(c3cccc(OC)c3)CC2)oc2cc([C@@H](CC(=O)O)C3CC3)ccc12 (some centres unmarked) [Compound 408] | 100 to 500 nM | ††† (Efficacy (%) > 150)
16 |  | CC(C)(C)c1ccc(-c2c(C3CCN(c4ccc5c(c4)OCCO5)CC3)oc3cc(C(CC(=O)O)C4CC4)ccc23)cc1 (centres unmarked) [Compound 215] | 100 to 500 nM | †† (150 ≥ Efficacy (%) > 100)
17 |  | COc1cccc(N2CCC(c3oc4cc([C@H](C5CC5)C(C)C(=O)O)ccc4c3-c3cnn(C(C)(C)C)c3)CC2)c1 (some centres unmarked) [Compound 55] | ≤ 10 nM | †† (150 ≥ Efficacy (%) > 100)
18 |  | COc1cccc(N2CCC(c3oc4cc([C@@H](CC(=O)O)C5CC5)ccc4c3-c3cccc(C)n3)CC2)c1 [Compound 147] | 10 to 100 nM | ††† (Efficacy (%) > 150)
19 |  | COc1ccc(F)c(N2CCC(c3oc4cc(C(CC(=O)O)C5CC5)ccc4c3-c3ccc(C)cc3)CC2)c1 (centres unmarked) [Compound 160] | 100 to 500 nM | †† (150 ≥ Efficacy (%) > 100)
20 |  | COc1cccc(N2CCC(c3oc4cc([C@@H](CC(=O)O)C5CC5)ccc4c3C(OCC(C)C)c3cccc(C)c3)CC2)c1 (some centres unmarked) [Compound 428] | 100 to 500 nM | †† (150 ≥ Efficacy (%) > 100)
21 |  | CCC(CC(=O)O)c1ccc2c(-c3cnn(C(C)(C)C)c3)c(C3CCN(c4cccc(OC)c4)CC3)oc2c1 (centres unmarked) [Compound 66] | 100 to 500 nM | †† (150 ≥ Efficacy (%) > 100)
22 |  | COc1cccc(N2CCC(c3oc4cc(C(CC(=O)O)C5CC5)ccc4c3C(=O)Nc3c(C)cccc3F)CC2)c1 (centres unmarked) [Compound 252] | 100 to 500 nM | †† (150 ≥ Efficacy (%) > 100)
23 |  | CC(C)(C)c1ccc(-c2c(C3CCN(c4ccc5c(c4)OCO5)CC3)oc3cc(C(CC(=O)O)C4CC4)ccc23)cc1 (centres unmarked) [Compound 212] | 100 to 500 nM | †† (150 ≥ Efficacy (%) > 100)
24 |  | COc1cccc(N2CCC(c3oc4cc(C(CC(=O)O)C5CC5)ccc4c3C(=O)Nc3cccc(Br)c3)CC2)c1 (centres unmarked) [Compound 247] | 100 to 500 nM | ††† (Efficacy (%) > 150)

Row | Efficacy (%) (numeric values of positive controls) | SMILES | EC50 | Efficacy (%) (class symbols)
25 |  | COc1cccc(N2CCC(c3oc4cc(C(CC(=O)O)C5CC5)ccc4c3-c3cnn(C(C)(C)CF)c3)CC2)c1 (centres unmarked) [Compound 47] | 100 to 500 nM | †† (150 ≥ Efficacy (%) > 100)
26 |  | COc1cccc(N2CCC(c3oc4cc(C(CC(=O)O)C5CC5)ccc4c3-c3cnn(C)c3)CC2)c1 (centres unmarked) [Compound 36] | 100 to 500 nM | †† (150 ≥ Efficacy (%) > 100)
27 |  | COc1cccc(N2CCC(c3oc4cc([C@@H](CC(=O)O)C5CC5)ccc4c3-c3ccc4c(c3)C3(CCCCC3)c3ccccc3-4)CC2)c1 [Compound 81] | 100 to 500 nM | † (100 ≥ Efficacy (%) > 50)
28 |  | CCC(CC(=O)O)c1ccc2c(-c3cccc(C(C)(C)C)c3)c(C3CCN(c4cc(OC)ccc4F)CC3)oc2c1 (centres unmarked) [Compound 233] | 100 to 500 nM | †† (150 ≥ Efficacy (%) > 100)
29 |  | COc1cccc(N2CCC(c3oc4cc(C(CC(=O)O)C5CC5)ccc4c3C3O[C@@H](C)[C@H](C)O3)CC2)c1 (some centres unmarked) [Compound 400] | 100 to 500 nM | † (100 ≥ Efficacy (%) > 50)
30 |  | COc1ccc(OC)c(N2CCC(c3oc4cc(C(CC(=O)O)C5CC5)ccc4c3-c3cnn(C(C)(C)C)c3)CC2)c1 (centres unmarked) [Compound 85] | 100 to 500 nM | †† (150 ≥ Efficacy (%) > 100)
31 |  | COc1cccc(N2CCC(c3oc4cc(C(CC(=O)O)C5CC5)ccc4c3-c3nnc(C4(C)CCCCC4)o3)CC2)c1 (centres unmarked) [Compound 140] | 100 to 500 nM | ††† (Efficacy (%) > 150)
32 |  | COc1cccc(N2CCC(c3oc4cc(C(CC(=O)O)C5CC5)ccc4c3-c3nnc(C(C)(C)CN4CCCCC4)o3)CC2)c1 (centres unmarked) [Compound 137] | 10 to 100 nM | ††† (Efficacy (%) > 150)
33 |  | COc1ccc(F)c(N2CCC(c3oc4cc([C@@H](CC(=O)O)C5CC5)ccc4c3C/C=C/C3CC3)CC2)c1 [Compound 373] | 10 to 100 nM | †† (150 ≥ Efficacy (%) > 100)
34 |  | CSc1cccc(N2CCC(c3oc4cc(C(CC(=O)O)C5CC5)ccc4c3-c3cccc(C(C)(C)C)c3)CC2)c1 (centres unmarked) [Compound 31] | 100 to 500 nM | †† (150 ≥ Efficacy (%) > 100)
35 |  | COc1ccc(N2CCC(c3oc4cc(C(CC(=O)O)C5CC5)ccc4c3-c3cccc(C(C)(C)C)c3)CC2)cc1 (centres unmarked) [Compound 10] | 100 to 500 nM | †† (150 ≥ Efficacy (%) > 100)
36 |  | COc1cccc(N2CCC(c3oc4cc([C@@H](CC(=O)O)C5CC5)ccc4c3CN(C(=O)C(C)(C)C)c3cccc(Cl)c3)CC2)c1 [Compound 448] | 100 to 500 nM | †† (150 ≥ Efficacy (%) > 100)
37 |  | COc1ccc(F)c(N2CCC(c3oc4cc(C(CC(=O)O)C5CC5)ccc4c3-c3cccc(C)c3)CC2)c1 (centres unmarked) [Compound 157] | 100 to 500 nM | ††† (Efficacy (%) > 150)
38 |  | COc1ccc(F)c(N2CCC(c3oc4cc(C(CC(=O)O)C5CC5)ccc4c3-c3cccc(NC(C)C)c3)CC2)c1 (centres unmarked) [Compound 187] | 100 to 500 nM | †† (150 ≥ Efficacy (%) > 100)
39 |  | COc1ccc(F)c(N2CCC(c3oc4cc([C@@H](CC(=O)O)C5CC5)ccc4c3/C=C/C(C)(C)C)CC2)c1 [Compound 367] | ≤ 10 nM | †† (150 ≥ Efficacy (%) > 100)
40 |  | COc1cccc(N2CCC(c3oc4cc(C(CC(=O)O)C5CC5)ccc4c3-c3cnn(C(C)(C)C)c3)CC2)c1Cl (centres unmarked) [Compound 88] | 100 to 500 nM | †† (150 ≥ Efficacy (%) > 100)
41 |  | COc1cccc(N2CCC(c3oc4cc([C@@H](CC(=O)O)C5CC5)ccc4c3-c3nc(C(C)C)cs3)CC2)c1 [Compound 109] | 100 to 500 nM | †† (150 ≥ Efficacy (%) > 100)
42 | 65% | Cc1cc(OCCCS(C)(=O)=O)cc(C)c1-c1cccc(COc2ccc3c(c2)OC[C@H]3CC(=O)O)c1 [TAK875, reference compound] |  | 
43 |  | COc1cccc(N2CCC(c3oc4cc(C(CC(=O)O)C5CC5)ccc4c3-c3cn(C)nn3)CC2)c1 (centres unmarked) [Compound 120] | > 500 nM | †† (150 ≥ Efficacy (%) > 100)
44 |  | COc1cccc(N2CCC(c3oc4cc([C@@H](CC(=O)O)C5CC5)ccc4c3CN(C)CC(C)(C)C)CC2)c1 [Compound 438] | 10 to 100 nM | †† (150 ≥ Efficacy (%) > 100)
45 |  | COc1ccc(C(=O)N(C)CC(C)(C)C)c(N2CCC(c3oc4cc([C@@H](CC(=O)O)C5CC5)ccc4c3-c3cnn(C(C)(C)C)c3)CC2)c1 [Compound 92] | 100 to 500 nM | ††† (Efficacy (%) > 150)
46 |  | COc1cccc(N2CCC(c3oc4cc(C(CC(=O)O)C5CC5)ccc4c3C(=O)N3CC4(CCC4)C3)CC2)c1 (centres unmarked) [Compound 360] | > 500 nM | ††† (Efficacy (%) > 150)
47 |  | COc1ccc(F)c(N2CCC(c3oc4cc([C@H](C5CC5)C(F)C(=O)O)ccc4c3-c3ccc(C(C)(C)C)cc3)CC2)c1 (some centres unmarked) [Compound 220] | 100 to 500 nM | ††††
48 |  | CC(C)(C)c1ccc(-c2c(C3CCN(c4cccc(S(C)(=O)=O)c4)CC3)oc3cc(C(CC(=O)O)C4CC4)ccc23)cc1 (centres unmarked) [Compound 27] | 100 to 500 nM | † (100 ≥ Efficacy (%) > 50)

From patent publication EP4682145A1, “BENZOHETEROCYCLIC COMPOUND, AND PREPARATION METHOD THEREFOR AND USE THEREOF” (Cascade Pharmaceuticals, Inc., priority 2023, dated 2024)
